Test results published in patent US8969345B2, “Dibenzooxepin derivative” (Kyowa Hakko Kirin Co., Ltd., priority 2011, dated 2015).

Experiments:
[1] = Metabolic stability evaluation in human liver microsome; type: in vitro ADME; conditions: liver microsomes, pH 7.4; human liver microsome 0.2 mg/mL protein, test compound 1 μmol/L, β-NADPH, 37° C., 30 min; average of two samples; read-out: hCLint (converted)
Procedure: Human liver microsome (pool of 50 donors) was purchased from XenoTech. A reaction mixture containing phosphate buffer (100 mmol/L, pH 7.4), ethylenediamine tetraacetic acid (0.1 mmol/L), magnesium chloride (6 mmol/L), human liver microsome (0.2 mg/mL protein) and test compound (1 μmol/L) was prepared. The reaction mixture was preincubated at 37° C. for 5 min, β-NADPH (1 mmol/L) was added and the mixture was incubated at 37° C. for 30 min. The protein was removed with acetonitrile from the sample after the reaction and the sample was measured by LC-MS/MS. The ratio of the organic solvent in the reaction mixture was set to about 0.5%, and the reaction was performed in 2 samples.
The elimination rate constant (ke) was calculated from the linear regression of the logarithm plot of the residual ratio of the test compound and at 30 min after the reaction, and the liver inherent clearance (Cint) was calculated by the following formula.
[formula] ke: elimination rate constant (1/h) a: concentration (mg/mL) of liver microsome in the reaction mixture b: liver microsome amount per liver unit weight (32.3 mg/g liver) c: liver weight per unit body weight (25.7 g liver/kg body weight) Each test compound was tested in two samples, and the average thereof was calculated.

[2] = target: T1, GAL4-PPAR γ chimeric nuclear receptor (human PPAR γ ligand binding domain) (Homo sapiens, UniProt P37231); experiment: PPAR γ transactivation assay by transient gene transfer (GAL4-PPAR γ chimeric receptor, luciferase reporter, HEK293EBNA cells); type: cell-based; conditions: concentration showing 50% of efficacy (maximum activity rate relative to pioglitazone = 100%), 24 hr
T1 construct: expressed in transfected cells; host or cells: HEK293EBNA cells, transient transfection with SuperFect
T1 sequence (P37231 174-475 isoform P37231-2): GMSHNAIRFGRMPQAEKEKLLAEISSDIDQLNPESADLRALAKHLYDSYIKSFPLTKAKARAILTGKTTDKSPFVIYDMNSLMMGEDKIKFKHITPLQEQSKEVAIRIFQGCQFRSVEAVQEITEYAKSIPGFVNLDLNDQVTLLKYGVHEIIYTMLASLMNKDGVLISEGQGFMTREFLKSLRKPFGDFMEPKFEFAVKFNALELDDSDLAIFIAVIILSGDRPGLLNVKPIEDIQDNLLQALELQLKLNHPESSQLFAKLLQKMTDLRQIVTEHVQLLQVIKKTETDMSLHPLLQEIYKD
Procedure: The agonist activity of the test compound to PPAR γ was determined by a transactivation assay method using a chimeric nuclear receptor of a DNA binding region of a yeast transcription factor GAL4 and a PPAR γ ligand binding region. Specifically, the PPAR γ agonist activity of the test compound was evaluated by the following method based on the method of Lehmann et al. (J Biol. Chem., 1995, vol. 270, page 12953).
HEK293EBNA cells cultured in Dulbecco's Modified Eagle medium (Invitrogen) containing 10 v/v % fetal bovine serum (Invitrogen) were used. 30 mL of the above-mentioned cells (density: 1×10^5 cells/mL) were inoculated in a […] (Iwaki Glass), and cultured overnight. Using SuperFect Transfection Reagent (QIAGEN), a plasmid expressing a GAL4-PPAR γ chimeric nuclear receptor fusing 174-475 amino acids, which are human PPAR γ ligand binding domain, and 1-147 amino acids, which are GAL4 DNA binding domain, and a reporter plasmid expressing a GAL4 responsive luciferase were transiently introduced into the cells at a proportion of 4:1. After 5 hr from transfection, the cells were detached from the culture dish, and the detached cells (density: 2×10^4 cells/mL) were inoculated by 100 μL in each well of a 96 well white plate (SUMITOMO BAKELITE), and cultured overnight. The medium was removed, the test compound diluted in various concentrations with serum-free Dulbecco's Modified Eagle medium was added by 100 μL, and the mixture was reacted under a 5% carbon dioxide gas stream (5% CO2) at 37° C. for 24 hr. On the other hand, as a positive control, 10 μmol/L of pioglitazone (100 μL) was added, and the mixture was reacted under a 5% carbon dioxide gas stream (5% CO2) at 37° C. for 24 hr. As a substrate of luciferase, 100 μL of Steady-Glo (Promega) was added to each well and the mixture was thoroughly stirred. Immediately thereafter, the chemical luminescence due to luciferase was measured using TopCount NTX (Packard).
The agonist activity (activity rate (%)) of the test compound to PPAR γ was calculated according to the following formula, as a relative activity when the agonist activity on addition of pioglitazone ([…]) was 100%.

SMILES | CLint scaled at 1 μmol/L [1] [L/h/kg] | EC50 [2] [µM]
CCCc1nc2ccccc2n1Cc1ccc2c(c1)COc1cc(F)ccc1/C2=C(\C)c1noc(=O)[nH]1 [Compound 1a, (E)-3-(1-{3-fluoro-8-[(2-propyl-1H-benzo[d]imidazol-1-yl)methyl]dibenzo[b,e]oxepin-11(6H)-ylidene}ethyl)-1,2,4-oxadiazol-5(4H)-one] | 3.2 | 0.0074
COCc1nc2ccccc2n1Cc1ccc2c(c1)COc1cc(F)ccc1/C2=C(\C)c1noc(=O)[nH]1 [Compound 1b, (E)-3-[1-(3-fluoro-8-{[2-(methoxymethyl)-1H-benzo[d]imidazol-1-yl]methyl}dibenzo[b,e]oxepin-11(6H)-ylidene)ethyl]-1,2,4-oxadiazol-5(4H)-one] | 1.9 | 0.0117
C/C(=C1/c2ccc(Cn3c(C4CC4)nc4ccccc43)cc2COc2cc(F)ccc21)c1noc(=O)[nH]1 [Compound 1d, (E)-3-(1-{8-[(2-cyclopropyl-1H-benzo[d]imidazol-1-yl)methyl]-3-fluorodibenzo[b,e]oxepin-11(6H)-ylidene}ethyl)-1,2,4-oxadiazol-5(4H)-one] | 1.4 | 0.009
C/C(=C1/c2ccc(Cn3c(C4CC(F)(F)C4)nc4ccccc43)cc2COc2cc(F)ccc21)c1noc(=O)[nH]1 [Compound 1j, (E)-3-[1-(8-{[2-(3,3-difluorocyclobutyl)-1H-benzo[d]imidazol-1-yl]methyl}-3-fluorodibenzo[b,e]oxepin-11(6H)-ylidene)ethyl]-1,2,4-oxadiazol-5(4H)-one] | 1.7 | 0.0072
[2H]C([2H])([2H])Oc1cccc2c1nc(COC)n2Cc1ccc2c(c1)COc1cc(F)ccc1/C2=C(\C)c1noc(=O)[nH]1 [Compound 2a, (E)-3-[1-(3-fluoro-8-{[4-(methoxy-d3)-2-(methoxymethyl)-1H-benzo[d]imidazol-1-yl]methyl}dibenzo[b,e]oxepin-11(6H)-ylidene)ethyl]-1,2,4-oxadiazol-5(4H)-one] | 0.44 | 0.0456
CCCc1nc2c(C(N)=O)cccc2n1Cc1ccc2c(c1)COc1cc(F)ccc1/C2=C(\C)c1noc(=O)[nH]1 [Compound 2b, (E)-1-({3-fluoro-11-[1-(5-oxo-4,5-dihydro-1,2,4-oxadiazol-3-yl)ethylidene]-6,11-dihydrodibenzo[b,e]oxepin-8-yl}methyl)-2-propyl-1H-benzo[d]imidazole-4-carboxamide] | 1.6 | 0.0595
C/C(=C1/c2ccc(Cn3c(C4CCC4)nc4c(Cl)nccc43)cc2COc2cc(F)ccc21)c1noc(=O)[nH]1 [Compound 3b, (E)-3-(1-{8-[(4-chloro-2-cyclobutyl-1H-imidazo[4,5-c]pyridin-1-yl)methyl]-3-fluorodibenzo[b,e]oxepin-11(6H)-ylidene}ethyl)-1,2,4-oxadiazol-5(4H)-one] | 0.57 | 0.0228
C/C(=C1/c2ccc(Cn3c(C4CCC4)nc4nc(F)ccc43)cc2COc2cc(F)ccc21)c1noc(=O)[nH]1 [Compound 3i, (E)-3-(1-{8-[(2-cyclobutyl-5-fluoro-1H-imidazo[4,5-b]pyridin-1-yl)methyl]-3-fluorodibenzo[b,e]oxepin-11(6H)-ylidene}ethyl)-1,2,4-oxadiazol-5(4H)-one] | 1.3 | 0.0085
C/C(=C1/c2ccc(Cn3c(CN(C)C)nc4ccccc43)cc2COc2cc(F)ccc21)c1noc(=O)[nH]1 [Compound 4a, (E)-3-{1-[8-({2-[(dimethylamino)methyl]-1H-benzo[d]imidazol-1-yl}methyl)-3-fluorodibenzo[b,e]oxepin-11(6H)-ylidene]ethyl}-1,2,4-oxadiazol-5(4H)-one] | 1.9 | 0.0335
CCCc1nc2ccccc2n1Cc1ccc2c(c1)COc1cc(F)ccc1/C2=C(/c1noc(=O)[nH]1)C1CC1 [Compound 4g, (E)-3-(cyclopropyl{3-fluoro-8-[(2-propyl-1H-benzo[d]imidazol-1-yl)methyl]dibenzo[b,e]oxepin-11(6H)-ylidene}methyl)-1,2,4-oxadiazol-5(4H)-one] | 4.7 | 0.0549
CC/C(=C1/c2ccc(Cn3c(COC)nc4ccccc43)cc2COc2cc(F)ccc21)c1noc(=O)[nH]1 [Compound 4l, (E)-3-[1-(3-fluoro-8-{[2-(methoxymethyl)-1H-benzo[d]imidazol-1-yl]methyl}dibenzo[b,e]oxepin-11(6H)-ylidene)propyl]-1,2,4-oxadiazol-5(4H)-one] | 2.2 | 0.038
CCCc1nc2ccccc2n1Cc1ccc2c(c1)COc1cc(F)c(F)cc1/C2=C(\C)c1noc(=O)[nH]1 [Compound 6a, (E)-3-(1-{2,3-difluoro-8-[(2-propyl-1H-benzo[d]imidazol-1-yl)methyl]dibenzo[b,e]oxepin-11(6H)-ylidene}ethyl)-1,2,4-oxadiazol-5(4H)-one] | 2 | 0.0115
CCCc1nc2ccccc2n1Cc1ccc2c(c1)COc1c(ccc(F)c1F)/C2=C(\C)c1noc(=O)[nH]1 [Compound 7a, (E)-3-(1-{3,4-difluoro-8-[(2-propyl-1H-benzo[d]imidazol-1-yl)methyl]dibenzo[b,e]oxepin-11(6H)-ylidene}ethyl)-1,2,4-oxadiazol-5(4H)-one] | 2.9 | 0.0277
C/C(=C1/c2ccc(Cc3c(C4CC4)nc4c(Cl)cccn34)cc2COc2cc(F)ccc21)c1noc(=O)[nH]1 [Compound 8a, (E)-3-(1-{8-[(8-chloro-2-cyclopropylimidazo[1,2-a]pyridin-3-yl)methyl]-3-fluorodibenzo[b,e]oxepin-11(6H)-ylidene}ethyl)-1,2,4-oxadiazol-5(4H)-one] | 2.2 | 0.0042
C/C(=C1/c2ccc(Cc3c(C4CC4)nc4ccccn34)cc2COc2cc(F)ccc21)c1noc(=O)[nH]1 [Compound 8b, (E)-3-(1-{8-[(2-cyclopropylimidazo[1,2-a]pyridin-3-yl)methyl]-3-fluorodibenzo[b,e]oxepin-11(6H)-ylidene}ethyl)-1,2,4-oxadiazol-5(4H)-one] | 2.4 | 0.0277
C/C(=C1/c2ccc(Cc3c(C(C)C)nc4ccccn34)cc2COc2cc(F)ccc21)c1noc(=O)[nH]1 [Compound 8c, (E)-3-(1-{3-fluoro-8-[(2-isopropylimidazo[1,2-a]pyridin-3-yl)methyl]dibenzo[b,e]oxepin-11(6H)-ylidene}ethyl)-1,2,4-oxadiazol-5(4H)-one] | 3 | 0.0333
COCc1nc2ccccn2c1Cc1ccc2c(c1)COc1cc(F)ccc1/C2=C(\C)c1noc(=O)[nH]1 [Compound 8f, (E)-3-[1-(3-fluoro8-{[2-(methoxymethyl)imidazo[1,2-a]pyridin-3-yl]methyl}dibenzo[b,e]oxepin-11(6H)-ylidene)ethyl]-1,2,4-oxadiazol-5(4H)-one] | 1 | 0.0317
O=c1[nH]c(/C(F)=C2\c3ccc(Cc4c(C5CC5)nc5c(Cl)cccn45)cc3COc3cc(F)ccc32)no1 [Compound 8n, (Z)-3-({8-[(8-chloro-2-cyclopropylimidazo[1,2-a]pyridin-3-yl)methyl]-3-fluorodibenzo[b,e]oxepin-11(6H)-ylidene}fluoromethyl)-1,2,4-oxadiazol-5(4H)-one] | 1.1 | 0.0545
